Laboratory results: US20210047366A1, “ANDRIAS DAVIDIANUS CARTILAGE PREPARATION” (TSINGHUA UNIVERSITY, priority 2017, published 2021)
pIC50: −log10 of the molar value. No end group written: not given here.

Molecular target: XOD (xanthine oxidase) enzyme (Sigma, derived from milk) (Bos taurus, UniProt P80457)
Test: XOD enzyme activity inhibition (XOD enzyme activity detection kit, uric acid absorption at 295 nm)
Conditions: for IC50: IC50(M), Table 5, molar; for IC50 / pIC50: half-inhibitory concentration on XOD; for XOD enzyme activity inhibition: concentration three times the half-inhibitory concentration

XOD (xanthine oxidase) enzyme (Sigma, derived from milk), sequence (P80457 whole entry): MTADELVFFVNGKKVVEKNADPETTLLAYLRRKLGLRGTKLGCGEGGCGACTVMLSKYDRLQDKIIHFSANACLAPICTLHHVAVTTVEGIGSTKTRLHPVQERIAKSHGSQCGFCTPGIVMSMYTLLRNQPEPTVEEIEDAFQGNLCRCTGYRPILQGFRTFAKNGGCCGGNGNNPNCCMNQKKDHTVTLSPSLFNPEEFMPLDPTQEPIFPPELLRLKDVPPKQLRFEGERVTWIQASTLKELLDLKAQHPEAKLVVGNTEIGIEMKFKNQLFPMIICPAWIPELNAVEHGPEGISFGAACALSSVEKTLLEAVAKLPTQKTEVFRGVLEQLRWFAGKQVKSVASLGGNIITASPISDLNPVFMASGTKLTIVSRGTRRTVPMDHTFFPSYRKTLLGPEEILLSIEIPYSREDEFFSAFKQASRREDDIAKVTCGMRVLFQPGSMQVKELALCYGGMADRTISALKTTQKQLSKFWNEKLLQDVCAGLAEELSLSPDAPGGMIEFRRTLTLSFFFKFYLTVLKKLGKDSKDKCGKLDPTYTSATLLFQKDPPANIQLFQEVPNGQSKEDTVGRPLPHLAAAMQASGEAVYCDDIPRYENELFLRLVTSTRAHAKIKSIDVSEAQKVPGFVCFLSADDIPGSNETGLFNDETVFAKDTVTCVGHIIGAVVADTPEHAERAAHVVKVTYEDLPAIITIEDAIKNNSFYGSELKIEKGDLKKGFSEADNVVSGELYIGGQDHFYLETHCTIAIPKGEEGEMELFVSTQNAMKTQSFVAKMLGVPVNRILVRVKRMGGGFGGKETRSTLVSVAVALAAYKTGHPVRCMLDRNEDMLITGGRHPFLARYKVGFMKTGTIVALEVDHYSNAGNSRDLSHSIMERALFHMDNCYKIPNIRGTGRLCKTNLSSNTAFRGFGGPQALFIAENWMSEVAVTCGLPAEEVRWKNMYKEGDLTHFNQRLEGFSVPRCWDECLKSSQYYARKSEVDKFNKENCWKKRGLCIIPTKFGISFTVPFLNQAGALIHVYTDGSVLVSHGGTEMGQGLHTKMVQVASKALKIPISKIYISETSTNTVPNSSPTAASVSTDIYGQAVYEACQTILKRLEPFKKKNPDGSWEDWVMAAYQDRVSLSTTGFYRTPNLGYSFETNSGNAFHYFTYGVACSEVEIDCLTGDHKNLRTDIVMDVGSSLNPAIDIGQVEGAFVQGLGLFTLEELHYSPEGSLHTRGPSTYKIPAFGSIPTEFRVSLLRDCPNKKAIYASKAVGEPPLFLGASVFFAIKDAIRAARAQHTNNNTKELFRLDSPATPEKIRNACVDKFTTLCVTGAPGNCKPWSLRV

Compound | IC50 [M] | XOD enzyme activity inhibition | pIC50 | activity at 20 µg/mL (read-out: XOD activity (%)) [%] | activity at 40 µg/mL (read-out: XOD activity (%)) [%] | activity at 80 µg/mL (read-out: XOD activity (%)) [%] | further results
Oc1ncnc2[nH]ncc12 [Allopurinol, reference compound] | – | – | – | – | – | – | XOD enzyme activity retained (concentration 30 μg/mL): about 10%; activity at 0.2 µg/mL (read-out: XOD activity (%)): 59.4%; activity at 0.4 µg/mL (read-out: XOD activity (%)): 34.7%; activity at 0.8 µg/mL (read-out: XOD activity (%)): 31.2%
VPSGPLGPEGPR [Peptide S1] | 0.00275 | – | – | – | – | – | pIC50 (same reaction system): 2.56; activity at 2500 µg/mL (read-out: XOD activity (%)): 57.6%; activity at 5000 µg/mL (read-out: XOD activity (%)): 36.7%; activity at 10000 µg/mL (read-out: XOD activity (%)): 26.9%

Second part, led by results:

IC50 [M] | XOD enzyme activity inhibition | pIC50 | activity at 20 µg/mL (read-out: XOD activity (%)) [%] | activity at 40 µg/mL (read-out: XOD activity (%)) [%] | activity at 80 µg/mL (read-out: XOD activity (%)) [%] | Compound | further results
0.000125 | completely inhibited | 3.90 | – | – | – | TGPLGPSPGP [Peptide S2] | activity at 50 µg/mL (read-out: XOD activity (%)): 80%; activity at 100 µg/mL (read-out: XOD activity (%)): 55.8%; activity at 200 µg/mL (read-out: XOD activity (%)): 17.9%
5.82e-05 | completely inhibited | 4.23 | 87.2 | 67.3 | 46.9 | HDLPLPLPE [Peptide S3] | –
6.72e-05 | completely inhibited | 4.17 | 87.9 | 67.7 | 43.2 | DNLPPLPK [Peptide S4] | –
